Series [1] can be described thus: Partitioning of monomers between water and n-octanol, aqueous phase analysed by CZE. To be noted: 2 mM monomer, 25°C. The series is classed as physicochemical. As for the experimental part:
To that aim, aqueous solutions of these monomers have been subjected to partitioning against n-octanol. After partitioning, the aqueous phase is analyzed by capillary electrophoresis and the molar ratio of the various monomers in the two phases determined. […] Hydrophobicity scale of acrylamide and N-substituted derivatives. Each monomer was dissolved in aqueous solution (3.5 mL) at a concentration of 2 mM and mixed with an equal volume of n-octanol for 2 min. After phase separation, the aqueous solution is centrifuged for 75 min at 2000 rpm. All operations at 25°C. The solution, after dilution, is added with internal standard (2.5 mM of pK 9.3 Immobiline) and analyzed by CZE. For abbreviations see Fig. 1. Other abbreviations: MMA: […] ACM: N-acryloyl morpholine; […]: dideoxy […].

Series [2] can be described thus: Hydrolysis kinetics of free monomers under mild alkaline conditions, residual monomer quantified by capillary electrophoresis. The conditions noted are these: 0.1N NaOH, 70°C.

In the case of `C=CC(=O)NCCCCO` [AAB], the “hydrophilicity (from partition coefficients P)” value in series [1] is on record as “close to that of acrylamide”. Besides, the logP in series [1] (read-out: partition coefficient P (converted)) was -0.62.

On to `C=CC(=O)NCCCO` [AAP], for which the “hydrophilicity (from partition coefficients P)” value in series [1] is given as “twice as hydrophilic as acrylamide”. In series [2], the degradation kinetics result is “first order kinetics”; the “hydrolysis constant (K)” value came out at 0.00013 M⁻¹ s⁻¹; the “hydrolysis constant, times smaller than that of acrylamide” value is 8 times.

Take `C=CC(=O)N1CCOCC1` [N-acryloyl morpholine, reference compound]: the degradation kinetics entry in series [2] is on record as “a more rapid degradation kinetic”.

`C=CC(=O)NC(CO)(CO)CO` [Trisacryl, N-acryloyl-2-amino-2-hydroxymethyl-1,3 propandiol, reference compound]: in series [1], the “hydrophilicity (from partition coefficients P)” value is “by far the most hydrophilic molecule”. The degradation kinetics entry in series [2] is recorded as “zero-order kinetics”.

Source of the values: patent EP0856015B1, “NEW POLYACRYLAMIDE MATRICES IN ELECTROPHORETIC AND CHROMATOGRAPHIC TECHNIQUES” (RIGHETTI, Pier Giorgio, priority 1995, dated 1997).
